Reference: ChEMBL document CHEMBL5550126, “Identification of naphthalimide-derivatives as novel PBD-targeted polo-like kinase 1 inhibitors with efficacy in drug-resistant lung cancer cells” (Eur J Med Chem, 2024)
pIC50, pKd: −log10 of the molar value. Active and inactive are the calls of the source. No cut-off for these calls is given here.

Key:
[1] = target: T1, Serine/threonine-protein kinase PLK1 (Homo sapiens, UniProt P53350); assay: Binding affinity to PLK1 in human A549/DDP cell lysates assessed as thermal stabilization at 20 uM at 44 to 64 degreeC incubated for 2 hrs by CETSA; format: subcellular; conditions: Lysate
T1 sequence (P53350 whole entry): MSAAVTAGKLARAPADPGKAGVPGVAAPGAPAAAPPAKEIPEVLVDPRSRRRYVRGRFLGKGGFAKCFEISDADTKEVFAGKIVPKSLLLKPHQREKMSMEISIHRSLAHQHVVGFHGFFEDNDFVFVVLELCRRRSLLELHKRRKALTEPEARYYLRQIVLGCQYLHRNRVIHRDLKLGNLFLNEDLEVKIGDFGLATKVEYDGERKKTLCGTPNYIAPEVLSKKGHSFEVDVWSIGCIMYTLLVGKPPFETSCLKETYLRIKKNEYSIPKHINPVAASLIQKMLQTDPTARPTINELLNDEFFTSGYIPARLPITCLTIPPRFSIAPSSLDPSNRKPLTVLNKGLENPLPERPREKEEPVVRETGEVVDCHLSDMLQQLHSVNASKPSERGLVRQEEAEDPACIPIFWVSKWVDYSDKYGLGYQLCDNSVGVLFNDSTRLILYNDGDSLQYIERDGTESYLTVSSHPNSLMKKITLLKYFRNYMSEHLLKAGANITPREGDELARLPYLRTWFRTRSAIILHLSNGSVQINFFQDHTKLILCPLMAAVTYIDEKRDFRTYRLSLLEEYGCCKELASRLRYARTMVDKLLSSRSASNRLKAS

[2] = Toxicity in male BALB/c nude mouse xenografted with human A549/DDP cells assessed as lung damage at 30 to 50 mg/kg, ip administered every 2 days for 32 days by H and E staining based analysis; format: organism-based, A549/CDDP; conditions: in vivo, 768 h, dose 30-50 mg/kg, time 32 day
[3] = system: MCF7; assay: Anticancer activity against human MCF7 cells assessed as inhibition of cell growth incubated for 48 hrs by crystal violet staining based analysis; format: functional; conditions: MCF7, 48 h
[4] = system: A549/CDDP; assay: Antitumor activity against human A549/DDP cells assessed as male BALB/c nude mouse assessed as tumor growth inhibition at 30 mg/kg, ip administered every 2 days for 32 days and measured 3 times a week relative to control; format: functional; conditions: 768 h, time 32 day, read-out: TGI
[5] = Binding affinity to cysteine in PBS assessed as increase in fluorogenic response at 5 uM by UV lamp irradiation/fluorescence spectrophotometer
[6] = target: T1, Serine/threonine-protein kinase PLK1; assay: Binding affinity to recombinant PLK1 (unknown origin) assessed as dissociation constant by SPR analysis
[7] = system: A549; assay: Induction of mitotic catastrophe in human A549 cells assessed as reduction in PRC1 recruitment by PLK1 in anaphase at 1.5 to 3 uM measured after 48 hrs by immunostaining based laser confocal microscopic analysis; format: functional, cell-based; conditions: dose 1.5-3 µM
[8] = Antitumor activity against human gefitinib resistant NCI-H1975 cells xenografted in male BALB/c nude mouse assessed as inhibition of tumor growth at 30 mg/kg, po administered every 2 days for 20 days and measured 3 times a week relative to control; format: functional; conditions: gefitinib resistant NCI-H1975 cell, 480 h, time 20 day, read-out: TGI
[9] = Toxicity in male BALB/c nude mouse xenografted with human A549/DDP cells assessed as change in liver index at 30 to 50 mg/kg, ip administered every 2 days for 32 days; format: organism-based, A549/CDDP; conditions: in vivo, 768 h, dose 30-50 mg/kg, time 32 day
[10] = system: A549/CDDP; assay: Disruption of redox homeostasis in human A549/DDP cells assessed as reduction in GSH level at 0 to 9 uM measured after 48 hrs; format: functional, cell-based; conditions: dose 0-9 µM
[11] = system: A549/CDDP; assay: Antitumor activity against human A549/DDP cells assessed as male BALB/c nude mouse assessed as median survival time at 50 mg/kg, ip administered every 2 days for 32 days (reference value: 38 days); format: functional; conditions: time 32 day
[12] = GSH reactivity of compound in PBS assessed as increase in fluorogenic response at 0 to 800 uM measured after 60 mins by fluorescence spectrophotometer; format: physicochemical; conditions: buffer, 1 h, dose 0-800 µM
[13] = system: A549/CDDP; assay: Effect on c-Myc protein expression in human A549/DDP cells assessed as effect on protein abundance at 0 to 6 uM measured after 48 hrs by Western blot analysis; format: functional, cell-based; conditions: dose 0-6 µM
[14] = Toxicity in male BALB/c nude mouse xenografted with human gefitinib resistant NCI-H1975 cells assessed as reduction in body weight at 30 mg/kg, po administered every 2 days for 20 days and measured 3 times a week; format: organism-based; conditions: in vivo, 480 h, time 20 day
[15] = system: A549/CDDP; assay: Anticancer activity against human A549/DDP cells assessed as inhibition of cell growth incubated for 48 hrs by crystal violet staining based analysis; format: functional
[16] = Toxicity in male BALB/c nude mouse xenografted with human A549/DDP cells assessed as change in kidney index at 30 to 50 mg/kg, ip administered every 2 days for 32 days; format: organism-based, A549/CDDP; conditions: in vivo, 768 h, dose 30-50 mg/kg, time 32 day
[17] = target: T1, Serine/threonine-protein kinase PLK1; assay: Inhibition of PLK1 in human A549/DDP cells assessed as reduction in PLK1 phosphorylation measured after 48 hrs by Western blot analysis; format: cell-based
[18] = system: A549/CDDP; assay: Antitumor activity against human A549/DDP cells assessed as male BALB/c nude mouse assessed as reduction in tumor growth at 30 to 50 mg/kg, ip administered every 2 days for 32 days and measured 3 times a week; format: functional, organism-based; conditions: dose 30-50 mg/kg, time 32.0 day
[19] = Toxicity in male BALB/c nude mouse xenografted with human gefitinib resistant NCI-H1975 cells assessed as liver damage at 30 mg/kg, po administered every 2 days for 20 days and measured 3 times a week by H and E staining based analysis; format: organism-based; conditions: in vivo, 480 h, time 20 day
[20] = target: T1, Serine/threonine-protein kinase PLK1; assay: Binding affinity to PLK1 in human A549/DDP intact cells assessed as thermal stabilization at 3 uM at 44 to 64 degreeC incubated for 2 hrs by CETSA; format: cell-based
[21] = system: A549/CDDP; assay: Antitumor activity against human A549/DDP cells assessed as male BALB/c nude mouse assessed as tumor regression at 50 mg/kg, ip administered every 2 days for 32 days and measured 3 times a week; format: functional, organism-based; conditions: time 32.0 day
[22] = system: A549; assay: Induction of morphological changes in human A549 cells assessed as increase in mitotic catastrophe in nucleus at 0 to 3 uM measured after 48 hrs by immunofluorescence based laser confocal microscopic analysis; format: functional, cell-based; conditions: dose 0-3 µM
[23] = system: A549/CDDP; assay: Effect on CDK2 protein expression in human A549/DDP cells assessed as effect on protein abundance at 0 to 6 uM measured after 48 hrs by Western blot analysis; format: functional, cell-based; conditions: dose 0-6 µM
[24] = Antiproliferative activity against human gefitinib resistant NCI-H1975 cells assessed as inhibition of cell growth incubated for 48 hrs by crystal violet staining based analysis; format: functional
[25] = GSH reactivity in human A549 cells assessed as increase in fluorescence intensity measured after 48 hrs; format: ADME, cell-based; conditions: a549, 48 h, dose 0-9 µM
[26] = Toxicity in male BALB/c nude mouse xenografted with human A549/DDP cells assessed as heart damage at 30 to 50 mg/kg, ip administered every 2 days for 32 days by H and E staining based analysis; format: organism-based, A549/CDDP; conditions: in vivo, 768 h, dose 30-50 mg/kg, time 32 day
[27] = system: A549; assay: Induction of mitotic catastrophe in human A549 cells assessed as downregulation of CDK1-cyclin B1 complex protein expression at 1.5 to 6 uM measured after 48 hrs by Western blot analysis; format: functional, cell-based; conditions: dose 1.5-6 µM
[28] = GSH reactivity of compound in PBS assessed as increase in fluorogenic response at 5 uM measured after 0 to 24 hrs by fluorescence spectrophotometer; format: physicochemical; conditions: buffer, time 0-24 hrs
[29] = system: A549/CDDP; assay: Effect on cyclin A2 protein expression in human A549/DDP cells assessed as effect on protein abundance at 0 to 6 uM measured after 48 hrs by Western blot analysis; format: functional, cell-based; conditions: dose 0-6 µM
[30] = system: A549/CDDP; assay: Effect on p21 protein expression in human A549/DDP cells assessed as effect on protein abundance at 0 to 6 uM measured after 48 hrs by Western blot analysis; format: functional, cell-based; conditions: dose 0-6 µM
[31] = system: A549; assay: Induction of cell cycle arrest at G2/M phase in human A549 cells at 0 to 15 uM measured after 48 hrs by RNase A/PI staining based flow cytometry analysis; format: functional; conditions: dose 0-15 µM
[32] = system: NCI-H460; assay: Anticancer activity against human NCI-H460 cells assessed as inhibition of cell growth incubated for 48 hrs by crystal violet staining based analysis; format: functional; conditions: NCI-H460, 48 h
[33] = system: A549/CDDP; assay: Antitumor activity against human A549/DDP cells assessed as male BALB/c nude mouse assessed as reduction in cell proliferation by measuring reduction in […] positive cells in tumor at 30 to 50 mg/kg, ip administered every 2 days for 32 days by immunohistochemistry; format: functional, organism-based; conditions: dose 30-50 mg/kg, time 32.0 day

In the case of `CN(C)CCN1C(=O)c2cccc3c(S(=O)(=O)NCc4ccc(F)cc4)ccc(c23)C1=O`, the Activity [1] was “Active”, the Activity [2] was “Non-Toxic” and the pIC50 [3] was 5.18. For the same molecule, the inhibition in vivo at 30 mg/kg [4] was 42%, the Activity [5] was “inactive” and the pKd [6] was 6.54. For the same molecule, the Activity [7] was “Active”, the inhibition in vivo at 30 mg/kg [8] was 44% and the Activity [9] was “Non-Toxic”. The Activity [10] was “Active”, the MSD [11] was 62 days and the Drug metabolism [12] was “Metabolite_Detected”. For the same molecule, the Activity [13] was “Active”, the Activity [14] was “Non-Toxic” and the pIC50 [15] was 5.58. The Activity [16] was “Non-Toxic”, the inhibition [17] was “Active” and the Activity [18] was “Active”. The Activity [19] was “Non-Toxic”, the Activity [20] was “Active” and the Activity [21] was “Active”. The Activity [22] was “Active”, the Activity [23] was “Active” and the pIC50 [24] was 5.11. For the same molecule, the Drug metabolism [25] was “Metabolite_Detected”, the Activity [26] was “Non-Toxic” and the Activity [27] was “Active”. For the same molecule, the Drug metabolism [28] was “Metabolite_Detected”, the Activity [29] was “Active” and the Activity [30] was “Active”. The Activity [31] was “Active”, the pIC50 [32] was 5.64 and the Activity [33] was “Active”.
